From patent US20050143472A1, “Novel treatment for pathologies associated with oxidative damage” (priority 2002, published 2005) come the findings set out here.

“Also recorded” adds a separate entry of the source. Where two headings read alike, the source gives them in different places.

Assay [1] deals with T1, mPAO (Mus musculus, UniProt Q8C0L6).
T1 construct: the full length cDNA of mpao was released by Nde I and Hind III treatment, and ligated into Nde I and Hind III sites of pET29c; made in house; host or cells: E. coli BL21 GOLD (DE3), plasmid pET-MPAO (pET29c)
Kind of assay: Steady-state kinetic spectrophotometric assay of mPAO (H2O2 formation). Format: biochemical, murine. The following applies: for kcat′ / KS′: apparent value; for kcat′: air-saturated 50 mM KH2PO4/KOH buffer pH 7.6, [O2] 237 μM; for KS′: air-saturated buffer pH 7.6, [O2] 237 μM; for substrate for mPAO (oxidation by mPAO) / inhibitor of mPAO (oxidation of N^1-acetyl-Spm): in words; for kcat′/KS′: specificity constant, air-saturated buffer pH 7.6. The method, then: In this example the methods used to examine mPAO steady state kinetics are described. Spectrophotometric assays were done at 30° C. in a potassium phosphate buffer (e.g., 50 mM KH2PO4/KOH buffer, pH 7.6 saturated in air or in pure oxygen), using a published procedure which provides a continuous monitor of the H2O2 produced (Holt et al., Anal. Biochem. 244:384-392 [1997]). These assays were done in 1 mL cuvette with 0.8 mL of solution containing varying amounts of substrate, 1 mM vanillic acid, 0.5 mM 4-aminopyrine, 4 units of horseradish peroxidase, and 0.1-0.2 μg of mPAO. The reactions were monitored at 498 nm with a UVIKON 840 spectrophotometer (KONTRON Instruments) for the formation of the quinoneimine dye (ε498=4,650 M^−1cm^−1 at pH 7.6), the condensation product of vanillic acid and oxidized 4-aminopyrine. The latter is produced from 4-aminopyrine by the action of horseradish peroxidase that has been oxidized by H2O2 (Holt et al., supra [1997]). The assays were done at 25° C. by varying the concentration of the amine substrate, while the oxygen concentration in the assay solution was constant at the air-saturating level of 237 μM. The data were fit, by nonlinear regression to steady-state kinetic equations (McIntire et al., Biochem. J. 228:325-335 [1985]), which provided the values, and standard deviations thereof, for kcat′, KS′ and kcat′/KS′ (=Q, the specificity constant). [formula]
The dissociation constants, KD, for these and other amines were estimated in the following manner. It was assumed that the competition was competitive, since in the presence of the inhibitors, at a saturating N^1-acetyl-Spm concentration, the rate of the reaction was equal to the value of the true kcat. It was also assumed that the mechanism is of the ping-pong type. Thus, the applicable steady-state equation is (Segal, Enzyme Kinetics, John Wiley & Sons, New York, pp. 606-625 [1975]): [formula]
On the left, kcat and KS are the steady-state parameters for N^1-acetyl-Spm (S), and I and KI (=KD), represent the inhibitor and its inhibition constant, respectively. KIO and KO are the inhibition constant and Michaelis constant for O2, respectively. The equation can be converted to the expression on the right side when: [formula]
The expressions for kcat′ and KS′ (at the fixed [O2]=[…]) are the same as those when the inhibitor is absent. Since the values of kcat′ and KS″ were predetermined, inhibition assays were carried out where [S]≈KS″, which, in the absence of I, would give a rate, ν≈0.5×kcat″. In these assay, for each inhibitor, [I] was adjusted so the apparent rate was somewhat less then 0.5 kcat′. In this situation, after substitution and rearrangement, Equation 1 reduces to: [formula]
Since [I] and kcat′ are known, and ν is the measured rate in the presence of the inhibitor, the value of KI′ can be estimated. It is assumed that these apparent KI′ are good approximations of the true KI (=KD) values. […] The estimated KI′ values provided in Table 1, are the averages of these four values. If the reactions of the polyamine substrates and O2 with mPAO obeys a ping-pong type mechanism, the apparent values, kcat′/KS′, are equal to the true kcat/KS values.

Assay [2] addresses T1, mPAO. Description: Oxygraph assay of O2 consumption, progress-curve analysis. Particulars: progress curves before and after catalase addition. Format: biochemical, murine. The method, then: Some assays (oxygraph assays) were carried out by directly monitoring O2 consumption in air-saturated buffer ([O2]=0.237 mM) or buffer saturated with pure O2 at 30° C. ([O2]=1.12 mM). The depletion of O2 was detected with a Yellow Springs Instruments, Inc. Model 53 Oxygen Monitor equipped with a Clark electrode. […] Following a published procedure (Goudar et al., Biochim. Biophys. Acta 1429:377-383 [1999]), the data were fitted to the integrated Mechaelis-Menton equation. The analyses were done using Maple VI (Windows 2000) software (Waterloo Maple, Inc.) running on a PC computer. […] Inhibition by the H2O2, formed as a product of polyamine oxidation by mPAO, was assessed by addition of 2 μL of a 30 mg/mL (30,000 units/mg) solution of catalase, after [O2] reached zero.
The catalase immediately converted each mole of H2O2 to 0.5 mol of O2 (since [O2]=1.12 mM for pure O2-saturated buffer, then [O2]=0.56 mM immediately after catalase addition). In the presence of catalase, O2 depletion should occur at 0.5× the rate as it does in the absence of catalase (unless H2O2 inhibition is operating). With catalase present, each molecule of O2 will be converted eventually to H2O (4-electron equivalents), rather than to H2O2 (2-electron equivalents).

[3] abbreviates: apparent, inhibition of N^1-acetyl-Spm oxidation, average of four inhibitor concentrations, read-out: KI′ = KD.

T1 sequence (Q8C0L6 whole entry E184K/L285S/R416L/R417S/Q419R/E451A/V490I/S491G/V497A): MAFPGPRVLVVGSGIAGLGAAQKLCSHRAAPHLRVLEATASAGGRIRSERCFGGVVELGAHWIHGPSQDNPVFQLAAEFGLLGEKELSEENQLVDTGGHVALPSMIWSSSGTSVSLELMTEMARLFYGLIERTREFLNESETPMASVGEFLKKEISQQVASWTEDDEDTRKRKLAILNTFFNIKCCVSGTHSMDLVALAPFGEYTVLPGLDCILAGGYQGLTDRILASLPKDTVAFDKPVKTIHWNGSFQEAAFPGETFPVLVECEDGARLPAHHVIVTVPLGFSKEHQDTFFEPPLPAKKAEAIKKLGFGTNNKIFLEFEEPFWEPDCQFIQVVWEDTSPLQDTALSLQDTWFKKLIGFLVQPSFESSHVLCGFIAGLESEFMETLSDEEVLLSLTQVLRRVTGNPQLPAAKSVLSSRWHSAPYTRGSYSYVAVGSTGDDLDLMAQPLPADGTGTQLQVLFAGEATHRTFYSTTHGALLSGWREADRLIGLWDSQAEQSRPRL

Consider `CC(=O)NCCCCNCCCN` [N^8-acetyl-Spd], for which, in assay [1], the “kcat′” value was 0 s⁻¹, the “KS′” value was 0 µM, the “substrate for mPAO (oxidation by mPAO)” value is “not oxidized by mPAO” and the “kcat′/KS′” value was 0 M⁻¹ s⁻¹. Besides, the Ki in assay [1] (setting [3]) is 70 µM.
As to `N=C(N)NCCCCCCCCCCNC(=N)N` [synthalin, 1,10-bisguanidinodecane], in assay [1], the Ki came to 0.05 µM, the “kcat′” value was found to be 0 s⁻¹, the “KS′” value amounted to 0 µM and the “inhibitor of mPAO (oxidation of N^1-acetyl-Spm)” value (shortened to “inhibitor of mPAO”) was “extremely potent inhibitor of mPAO”. In addition, the “kcat′/KS′” value in assay [1] came out at 0 M⁻¹ s⁻¹.
For the compound `CCNCCCNCCCCNCCCNCC` [N^1,N^12-diethyl-Spm, N^1,N^12-bis[ethyl]spermine], in assay [1], the “kcat′” value stood at 0.415 ± 0.012 s⁻¹, the “KS′” value was determined as 150 ± 10 µM, the “substrate for mPAO (oxidation by mPAO)” value is “very good substrates” and the “kcat′/KS′” value is on record as “(2.77 ± 0.13) × 10^3 M^−1sec^−1”.
As for `NCCCNCCCCNCCCN` [Spm, spermine], in assay [1], the “KS′” value is 716 ± 33 µM, the “inhibitor of mPAO” value is “inhibitors” and the “substrate for mPAO (oxidation by mPAO)” value is reported as “poor mPAO substrate; also recorded: poor substrates for mPAO”. Further, the Ki in assay [1] (setting [3]) was 750 µM.
In the case of `NCCCCN` [Put, putrescine], in assay [1], the “kcat′” value turned out to be 0 s⁻¹, the “KS′” value is 0 µM, the “inhibitor of mPAO” value is on record as “inhibitors” and the “kcat′/KS′” value was 0 M⁻¹ s⁻¹. For the same compound, the Ki in assay [1] (setting [3]) is 1000 µM.
As for `NCCCCCCCCCCNCCCN` [N-(3-aminopropyl) 1,10 decanediamine, N-(3-Aminopropyl)-1,10-diaminodecane], in assay [1], the “kcat′” value was determined as 0 s⁻¹, the “inhibitor of mPAO” value is reported as “good inhibitor of mPAO” and the “kcat′/KS′” value worked out at 0 M⁻¹ s⁻¹. For the same compound, the Ki in assay [1] (setting [3]) is 35 µM. In assay [1] (listed as N-(3-Aminopropyl)-1,10-diaminodecane), the “substrate for mPAO (oxidation by mPAO)” value was “not oxidized by mPAO”. Moreover, in assay [1] (listed as N-(3-aminopropyl)-1,10-diaminodecane), the “substrate for mPAO (oxidation by mPAO)” value is given as “not to be a PAO substrate”.
Take `NCCCCNCCCN` [Spd, spermidine]: in assay [1], the “kcat′” value was 0 s⁻¹, the “KS′” value was 0 µM, the “inhibitor of mPAO” value is “inhibitors” and the “substrate for mPAO (oxidation by mPAO)” value is listed as “poor substrates for mPAO”. Further, in assay [1], the “kcat′/KS′” value was determined as 0 M⁻¹ s⁻¹. Moreover, in assay [1] (setting [3]), the Ki stood at 190 µM.
As for `OO` [H2O2, hydrogen peroxide], in assay [2], the “inhibition of mPAO by product H2O2” value was “inhibition does not occur”.
As to `CCNCCCNCCCNCCCNCC` [N^1,N^11-diethyl-nor-Spm, N^1,N^11-bis[ethyl]norspermine], in assay [1], the “kcat′” value is 1.93 ± 0.03 s⁻¹, the “KS′” value was 157 ± 7 µM, the “substrate for mPAO (oxidation by mPAO)” value is on record as “very good substrates” and the “kcat′/KS′” value was “(1.27 ± 0.03) × 10^4 M^−1sec^−1”.
Regarding `NCc1ccccc1` [benzylamine], in assay [1], the “kcat′” value amounted to 0 s⁻¹, the “KS′” value stood at 0 µM, the “inhibitor of mPAO” value is reported as “not” and the “kcat′/KS′” value stood at 0 M⁻¹ s⁻¹. The “KI′ = KD” value in assay [1] (apparent, inhibition of N^1-acetyl-Spm oxidation, average of four inhibitor concentrations) is “∞ (infinity)”.
